Measurements taken from patent US11447505B1, “Pyrrolo[2,3-b]pyridine compounds and their use in the treatment of cancer” (priority 2017, dated 2022).
Entries after “also recorded” stand apart in the source; their conditions may differ. Read-outs that look alike come from different tables or passages of the source. Each block holds one molecule with its values, some of them ahead of it.

Tests used:
[1] = Skin and blood compound concentrations after topical application to FVB mice
Procedure: (§4) Mice were culled 2 hours after final treatment. […] Mice were culled 2 hours, 4 hours, 8 hours or 24 hours after final treatment.
(§5) For DMBA/TPA experiments, 40 FVB mice were treated topically with 25 μg DMBA in acetone on day 1. From day 5, 4.7 μg TPA in acetone was applied 3 times weekly. […] Experimenters were fully blinded to the identity of treatment groups. Mice weights and general conditions were monitored at least 2 times per week, tumor sizes and numbers were recorded weekly. Mice were culled when papillomas reached 12 mm in diameter. Analysis of tumor volume and papilloma numbers were performed blinded to the identity of treatment groups.

[2] = Plasma protein binding; format: in vitro ADME
[3] = test system: MRCKα pS1003; experiment: MRCKα pS1003 immunohistochemical staining of topically treated mouse skin and papillomas; conditions: vs DMSO
Procedure: as §4, §5

[4] = target: T1, ROCK1 (Homo sapiens (Human), UniProt Q13464); experiment: ROCK1 cellular assay (pMLC T18/S19 immunoblot, MDA-MB-231 cells with doxycycline inducible kinase domain); format: cell-based
T1 sequence (Q13464 2-1354 limits assumed): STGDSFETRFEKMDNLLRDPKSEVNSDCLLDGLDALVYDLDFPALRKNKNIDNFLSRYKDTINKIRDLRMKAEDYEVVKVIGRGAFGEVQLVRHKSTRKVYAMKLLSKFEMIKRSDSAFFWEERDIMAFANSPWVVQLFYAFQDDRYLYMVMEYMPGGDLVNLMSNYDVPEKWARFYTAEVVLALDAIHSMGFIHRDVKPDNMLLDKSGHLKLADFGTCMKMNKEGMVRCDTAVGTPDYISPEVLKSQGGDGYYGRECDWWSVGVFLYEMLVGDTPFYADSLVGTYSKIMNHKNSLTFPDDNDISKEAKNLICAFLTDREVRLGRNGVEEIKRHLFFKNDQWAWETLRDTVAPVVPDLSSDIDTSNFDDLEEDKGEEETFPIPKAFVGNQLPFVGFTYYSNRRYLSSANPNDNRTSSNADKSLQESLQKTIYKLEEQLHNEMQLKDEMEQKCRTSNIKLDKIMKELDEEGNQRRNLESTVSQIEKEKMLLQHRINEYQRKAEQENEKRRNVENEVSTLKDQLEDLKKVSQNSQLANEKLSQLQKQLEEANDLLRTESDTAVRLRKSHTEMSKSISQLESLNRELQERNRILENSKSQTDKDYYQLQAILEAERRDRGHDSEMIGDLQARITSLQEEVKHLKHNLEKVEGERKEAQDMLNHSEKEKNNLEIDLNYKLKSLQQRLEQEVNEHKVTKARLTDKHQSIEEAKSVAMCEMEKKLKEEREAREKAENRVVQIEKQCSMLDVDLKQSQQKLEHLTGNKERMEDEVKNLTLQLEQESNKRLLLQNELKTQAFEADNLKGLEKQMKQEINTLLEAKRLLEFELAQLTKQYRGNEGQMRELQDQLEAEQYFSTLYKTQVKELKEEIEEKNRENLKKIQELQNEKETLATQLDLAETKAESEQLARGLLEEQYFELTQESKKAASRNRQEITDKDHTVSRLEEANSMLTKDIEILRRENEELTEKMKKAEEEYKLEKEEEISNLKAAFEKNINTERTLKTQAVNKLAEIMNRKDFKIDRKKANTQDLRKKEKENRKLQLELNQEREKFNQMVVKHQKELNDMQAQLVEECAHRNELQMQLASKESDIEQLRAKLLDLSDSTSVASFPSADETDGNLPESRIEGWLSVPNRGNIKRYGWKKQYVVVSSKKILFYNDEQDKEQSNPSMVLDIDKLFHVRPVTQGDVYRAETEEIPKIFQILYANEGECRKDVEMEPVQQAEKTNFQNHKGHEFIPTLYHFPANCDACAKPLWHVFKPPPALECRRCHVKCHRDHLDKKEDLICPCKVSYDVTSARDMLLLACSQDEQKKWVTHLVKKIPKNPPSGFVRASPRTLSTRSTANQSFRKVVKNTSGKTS
Procedure: (§1) MRCKβ, ROCK1 and ROCK2 Cellular Assays
(§2) MDA-MB-231 cells expressing doxycycline inducible ROCK1, ROCK2 or MRCKβ kinase domains were plated at 1.1×10^5 cells per well of a 12 well plate. After 24 hours, cells were treated with 1 μg/ml doxycycline for 18 hours to induce kinase domain expression and then tested over a suitable concentration range with compounds of the invention for 60 minutes. Cells were then washed with PBS and lysed with Tris-SDS lysis Buffer (50 mM Tris-HCl pH7.4, 0.5% (v/v) SDS, 1×PhosStop Inhibitors (04 906 837 001; Roche) and 1×Complete Protease Inhibitors (04 693 124 001; Roche)). Whole cell lysates were clarified by passing through QIAshredder spin columns, separated by SDS-PAGE, and quantitative immunoblotting performed using a LI-COR Odyssey IR scanner to determine pMLC (T18/S19) and α-Tubulin levels.

[5] = test system: E2 and G7 cells; experiment: Sub confluent migration assay of irradiated GBM cells (timelapse, single cell tracking); format: cell-based, human; conditions: 2 Gy
[6] = target: ROCK2 (Homo sapiens (Human), UniProt O75116); experiment: ROCK2 kinase assay (IMAP fluorescence polarization); format: biochemical
Sequence of ROCK2 (O75116 whole entry): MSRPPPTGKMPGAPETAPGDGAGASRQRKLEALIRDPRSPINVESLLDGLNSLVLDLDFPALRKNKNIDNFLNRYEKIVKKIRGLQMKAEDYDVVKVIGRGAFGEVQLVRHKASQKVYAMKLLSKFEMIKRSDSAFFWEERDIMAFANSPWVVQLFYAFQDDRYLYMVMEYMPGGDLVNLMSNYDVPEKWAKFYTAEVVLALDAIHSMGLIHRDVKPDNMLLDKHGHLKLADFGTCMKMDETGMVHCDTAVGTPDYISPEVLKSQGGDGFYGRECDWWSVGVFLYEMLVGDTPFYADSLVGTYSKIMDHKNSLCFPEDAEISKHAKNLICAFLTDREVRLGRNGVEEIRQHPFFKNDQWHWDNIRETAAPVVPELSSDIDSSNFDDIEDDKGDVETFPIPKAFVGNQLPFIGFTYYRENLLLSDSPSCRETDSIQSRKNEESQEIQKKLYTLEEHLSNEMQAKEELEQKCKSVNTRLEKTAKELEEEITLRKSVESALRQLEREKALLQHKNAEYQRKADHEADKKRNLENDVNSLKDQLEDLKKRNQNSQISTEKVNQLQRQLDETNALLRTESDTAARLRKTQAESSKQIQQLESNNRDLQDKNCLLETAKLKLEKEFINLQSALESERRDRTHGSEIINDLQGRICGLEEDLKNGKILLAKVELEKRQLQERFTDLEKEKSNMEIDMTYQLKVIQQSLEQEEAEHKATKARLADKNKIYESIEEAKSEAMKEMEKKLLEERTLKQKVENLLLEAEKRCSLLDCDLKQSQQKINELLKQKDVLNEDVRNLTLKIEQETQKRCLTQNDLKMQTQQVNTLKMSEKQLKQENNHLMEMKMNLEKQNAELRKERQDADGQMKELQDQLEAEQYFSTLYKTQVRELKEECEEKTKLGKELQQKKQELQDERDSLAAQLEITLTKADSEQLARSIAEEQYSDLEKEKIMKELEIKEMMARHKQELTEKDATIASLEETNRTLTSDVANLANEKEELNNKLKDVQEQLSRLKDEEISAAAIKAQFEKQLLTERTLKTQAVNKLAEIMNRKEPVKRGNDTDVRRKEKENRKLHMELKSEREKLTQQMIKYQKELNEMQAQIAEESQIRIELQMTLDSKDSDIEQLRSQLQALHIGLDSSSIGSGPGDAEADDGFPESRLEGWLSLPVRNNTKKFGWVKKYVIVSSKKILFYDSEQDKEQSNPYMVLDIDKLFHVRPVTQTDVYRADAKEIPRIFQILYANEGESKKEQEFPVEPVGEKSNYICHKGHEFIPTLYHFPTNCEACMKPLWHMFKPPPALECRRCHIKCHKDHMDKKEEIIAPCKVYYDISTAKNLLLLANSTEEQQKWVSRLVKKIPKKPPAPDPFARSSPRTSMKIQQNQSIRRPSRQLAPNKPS
Procedure: MRCKα, MRCKβ, ROCK1 and ROCK2 assays were performed using an IMAP fluorescence polarization assay format (Molecular Devices Inc.). 8-12 nM of each kinase (Life Technologies) was incubated for 60 min at room temperature with 100 nM FAM-S6-ribosomal protein derived peptide (synthesized by Alta Biosciences, University of Birmingham UK) in the presence of 1 μM ATP and 0.5 mM MgCl2 in 20 mM Tris buffer (pH 7.4) containing 0.01% Tween-20 and 1 mM DTT (MRCKα and β); or 1 μM ATP, 10 mM MgCl2 in 20 mM Tris buffer (pH 7.5) containing 0.25 mM EGTA 0.01% Triton X-100 and 1 mM DTT (ROCK1 and ROCK2). Typically, dose response analyses were performed over concentration ranges from 0.005-100 μM. Reactions were stopped by adding 2 assay volumes of 0.25% (v/v) IMAP binding reagent in 1×IMAP binding buffer A (Molecular Devices). After 30 min incubation to allow binding reagent to bind phosphorylated peptide, fluorescence polarization was measured on a Tecan Saphire^2 plate reader at excitation (470 nm) and emission (530 nm) wavelengths.

[7] = test system: G7 cells; experiment: Cell viability assay; format: cell-based, human
Excerpt: (§6) FIG. 4. […] N.S.=not significant. […] Cells were imaged using an Operetta high-throughput imaging platform. Red: actin, blue: DAPI, Scale bar: 100 μm. Automated image analysis was undertaken to quantify changes in neurite morphology. Data from >1000 cells.

[8] = test system: pMYPT1; experiment: pMYPT1 IHC of brain sections from mice bearing G7 intracranial tumours; format: in vivo, mouse; conditions: 3×2 Gy whole brain RT + 5 mg/kg twice daily for 10 days; listed as BDP-9066
Procedure: (§7) Female CD1 nude mice were orthotopically injected with 1×10^5 G7 or U87MG cells into the subventricular zone as previously described (16, 17). Tumours were allowed to establish for before magnetic resonance imaging (MRI) to confirm presence of tumour. Radiation treatments were conducted using an XSrtahl Small Animal Radiation Research Platform (SARRP). […] Tumours were sub-dissected and fresh frozen specimens sent for PK analysis (Vertex, UK). Formalin fixed, paraffin embedded sections were stained for Ki67, HLA or phosphoMYPT1 then scanned using a Hamamatsu Nanozoomer Slide scanning machine with Leica SlidePath Slide imaging software. Algorithms were optimised for each stain individually and automated, quantitative analysis undertaken. The defining of contralateral regions was performed blinded.
(§8) Tumours were sub-dissected from normal brain tissue and analysed by mass spectrometry to determine total compound levels (‘Total’). […] G7 intracranial tumours were allowed to establish for 12 weeks before initiation of treatment. The study was randomised and blinded. […] (D) Brain sections were stained by IHC for pMYPT1 levels (i). Levels of nuclear and cytoplasmic pMYPT1 were quantified by automated analysis using SlidePath. Statistical analysis: two tailed, unpaired t test. *p<0.05.

[9] = target: T2, MRCKβ (Homo sapiens (Human), UniProt Q9Y5S2); experiment: MRCKβ cellular assay (pMLC T18/S19 immunoblot, MDA-MB-231 cells with doxycycline inducible kinase domain); format: cell-based
Procedure: as §1, §2

[10] = test system: G7 and E2 cells; experiment: Clonogenic survival assay with irradiation; format: cell-based, human; conditions: 100 nM, G7 or E2 cells
Excerpt: as §6

[11] = test system: E2 cells; experiment: Ex vivo migration assay of irradiated GBM cells on murine brain slices; format: cell-based, human; conditions: 100 nM, 2 Gy
[12] = PK analysis in mice bearing intracranial U87MG or G7 tumours, subcutaneous dosing; format: in vivo, mouse
Procedure: as §7, §8

[13] = test system: G7 intracranial tumours; experiment: Survival of mice bearing G7 intracranial GBM tumours; format: in vivo, mouse
Procedure: Female CD1 nude mice were orthotopically injected with 1×10^5 G7 or U87MG cells into the subventricular zone as previously described (16, 17). Tumours were allowed to establish […] magnetic resonance imaging (MRI) to confirm presence of tumour. Radiation treatments were conducted using an XSrtahl Small Animal Radiation Research Platform (SARRP). 5 mg/kg BDP-9066 or vehicle (20% propylene glycol/80% PBS) was given subcutaneously twice daily or at stated time before cull for PK analysis. Tumours were sub-dissected and fresh frozen specimens sent for PK analysis (Vertex, UK). Formalin fixed, paraffin embedded sections were stained for Ki67, HLA or phosphoMYPT1 then scanned using a Hamamatsu Nanozoomer Slide scanning machine with Leica SlidePath Slide imaging software. Algorithms were optimised for each stain individually and automated, quantitative analysis undertaken. The defining of contralateral regions was performed blinded.
FIG. 6. […] (A) Outline of experiment to measure in vivo survival to BDP-9066 treatment. G7 intracranial tumours were allowed to establish for 10 weeks before initiation of treatment. Mice in the RT cohorts received 6×2 Gy whole brain RT over the course of two weeks. Only mice that were culled after the first 3 fractions of RT were included in the analysis to allow for any treatment benefit to take effect. The study was randomised, blinded and the mice stratified across the cohorts based on starting tumour size as assessed by T2 MRI. (B) Kaplan-Meier plot showing survival data. N.S.=not significant, *<p 0.05, **p<0.005. Statistical analysis: Log-rank (Mantel-Cox) test.
Pharmacological inhibition of MRCK when combined with radiotherapy confers a significant survival benefit to intracranial GBM tumour bearing mice. G7 intracranial tumours were established in four cohorts of mice: vehicle, BDP-9066, RT+vehicle and RT+BDP-9066 (FIG. 6A) and the 4 week treatment schedule outlined in FIG. 6A was commenced at 10 weeks post tumour cell injection. The experiment was terminated at 104 days after a final T2 MRI on the remaining mice.

[14] = target: MRCKα (Homo sapiens (Human), UniProt Q5VT25); experiment: MRCKα kinase assay (IMAP fluorescence polarization); format: biochemical
Sequence of MRCKα (Q5VT25 whole entry): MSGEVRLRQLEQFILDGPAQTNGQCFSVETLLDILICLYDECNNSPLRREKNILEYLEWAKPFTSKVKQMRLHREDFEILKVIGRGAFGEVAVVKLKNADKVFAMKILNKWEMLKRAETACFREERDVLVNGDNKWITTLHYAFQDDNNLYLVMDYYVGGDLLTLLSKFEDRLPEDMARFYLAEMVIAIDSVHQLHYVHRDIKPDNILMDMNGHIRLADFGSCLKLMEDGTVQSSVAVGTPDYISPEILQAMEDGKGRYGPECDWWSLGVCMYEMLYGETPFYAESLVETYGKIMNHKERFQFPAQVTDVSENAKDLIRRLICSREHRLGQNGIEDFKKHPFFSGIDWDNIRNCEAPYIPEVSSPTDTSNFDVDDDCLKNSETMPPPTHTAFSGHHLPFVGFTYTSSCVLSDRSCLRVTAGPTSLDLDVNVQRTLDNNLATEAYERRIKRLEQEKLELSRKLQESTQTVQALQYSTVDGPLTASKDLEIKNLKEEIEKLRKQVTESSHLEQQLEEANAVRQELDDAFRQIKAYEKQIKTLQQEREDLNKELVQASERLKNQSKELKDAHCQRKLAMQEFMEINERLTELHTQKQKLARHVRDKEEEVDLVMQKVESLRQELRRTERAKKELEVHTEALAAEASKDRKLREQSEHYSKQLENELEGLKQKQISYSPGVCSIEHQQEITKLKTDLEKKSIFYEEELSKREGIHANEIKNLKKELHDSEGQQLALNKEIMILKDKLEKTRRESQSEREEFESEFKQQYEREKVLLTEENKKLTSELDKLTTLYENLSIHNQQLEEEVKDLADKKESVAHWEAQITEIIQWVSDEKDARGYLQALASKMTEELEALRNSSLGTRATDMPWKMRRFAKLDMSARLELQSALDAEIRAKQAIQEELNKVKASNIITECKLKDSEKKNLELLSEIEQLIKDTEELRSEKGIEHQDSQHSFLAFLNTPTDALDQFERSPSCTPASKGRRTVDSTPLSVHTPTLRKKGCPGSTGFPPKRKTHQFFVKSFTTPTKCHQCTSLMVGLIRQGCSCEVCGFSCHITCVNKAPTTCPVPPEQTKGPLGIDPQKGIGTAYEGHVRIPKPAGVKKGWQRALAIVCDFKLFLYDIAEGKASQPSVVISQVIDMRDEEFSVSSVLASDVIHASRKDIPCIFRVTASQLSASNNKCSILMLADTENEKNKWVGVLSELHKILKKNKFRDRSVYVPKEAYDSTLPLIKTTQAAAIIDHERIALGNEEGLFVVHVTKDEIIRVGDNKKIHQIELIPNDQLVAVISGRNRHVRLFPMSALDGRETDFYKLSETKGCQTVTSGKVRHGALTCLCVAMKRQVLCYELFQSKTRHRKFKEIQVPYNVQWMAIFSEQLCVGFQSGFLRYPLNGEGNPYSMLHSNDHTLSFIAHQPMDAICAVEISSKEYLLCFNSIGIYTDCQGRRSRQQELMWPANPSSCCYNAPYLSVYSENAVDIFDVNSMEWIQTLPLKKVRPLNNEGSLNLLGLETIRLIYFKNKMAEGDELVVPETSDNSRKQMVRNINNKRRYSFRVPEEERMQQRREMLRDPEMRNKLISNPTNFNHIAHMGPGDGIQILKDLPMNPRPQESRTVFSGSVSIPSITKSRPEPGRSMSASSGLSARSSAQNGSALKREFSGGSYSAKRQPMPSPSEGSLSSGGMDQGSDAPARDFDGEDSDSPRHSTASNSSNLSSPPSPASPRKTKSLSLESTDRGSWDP
Excerpt: (§3) MRCKα, MRCKβ, ROCK1 and ROCK2 Kinase Assays

[15] = target: kinase targets listed in tables 3 and 4 (Homo sapiens, UniProt Q9BXA7); experiment: biochemical
Sequence of kinase targets listed in tables 3 and 4 (Homo sapiens, UniProt Q9BXA7) (Q9BXA7 whole entry, looked up): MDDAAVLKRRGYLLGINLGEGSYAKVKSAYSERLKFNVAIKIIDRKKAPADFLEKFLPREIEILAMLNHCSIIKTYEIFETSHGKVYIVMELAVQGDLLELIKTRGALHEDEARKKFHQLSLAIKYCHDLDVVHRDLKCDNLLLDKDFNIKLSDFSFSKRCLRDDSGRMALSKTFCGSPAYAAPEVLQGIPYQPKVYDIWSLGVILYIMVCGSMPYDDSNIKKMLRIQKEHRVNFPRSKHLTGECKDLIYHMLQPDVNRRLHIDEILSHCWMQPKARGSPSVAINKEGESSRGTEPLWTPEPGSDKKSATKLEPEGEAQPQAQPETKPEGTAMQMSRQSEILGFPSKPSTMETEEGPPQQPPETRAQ

[16] = target: kinase targets listed in tables 3 and 4 (Homo sapiens, UniProt Q13464); experiment: biochemical
Sequence of kinase targets listed in tables 3 and 4 (Homo sapiens, UniProt Q13464) (Q13464 2-1354 limits assumed): as the sequence (Q13464 2-1354 limits assumed) above

[17] = target: kinase targets listed in tables 3 and 4 (Homo sapiens, UniProt Q9Y5S2); experiment: biochemical
[18] = test system: DMBA/TPA skin papillomas; experiment: DMBA/TPA mouse model of squamous cell carcinoma, topical treatment; format: in vivo; conditions: topical 25 μg 5 times per week for 14 weeks, vs DMSO
Procedure: as §5

[19] = test system: E2 cells; experiment: Neurite morphology, automated image analysis; format: cell-based, human; conditions: cells treated with irradiation
Excerpt: as §6

[20] = target: T2, MRCKβ; experiment: MRCKβ kinase assay (IMAP fluorescence polarization); format: biochemical
Excerpt: as §3

[21] = target: T1, ROCK1; experiment: biochemical
[22] = test system: pMLC2; experiment: pMLC2 immunofluorescence, Operetta high-throughput imaging; format: cell-based, human
Excerpt: Cells were imaged using an Operetta high-throughput imaging platform. Green: pMLC2; yellow: actin; red: whole cell dye; blue: DAPI; Scale bar: 100 μm. (ii) Automated image analysis was undertaken to compare pMLC2 levels in control and irradiated cells. Data are derived from two biological repeats, each analysing >400 cells per condition.
Cells were imaged using an Operetta high-throughput imaging platform. Automated image analysis was used to compare pMLC2 levels. Data from two biological repeats with >400 cells per condition per biological replicate. Data plotted as a percentage of vehicle. […] Cells were imaged using an Operetta high-throughput imaging platform.

[23] = FVB, mouse, skin, topical, 25 μg
[24] = MDA-MB-231 cells, doxycycline inducible kinase domain, 60 minutes, pMLC (T18/S19), read-out: Cellular assay - ROCK1 inhibition MEAN
[25] = 1 μM ATP, read-out: ROCK2 Average Ki
[26] = MDA-MB-231 cells, doxycycline inducible kinase domain, 60 minutes, pMLC (T18/S19), read-out: Cellular assay - MRCK-b inhibition MEAN
[27] = 1 μM ATP, read-out: MRCK-a Average Ki
[28] = 1 μM ATP, read-out: MRCK-B Average Ki

- IC50 [4, 24]: > 30000 nM
- Ki [6, 25]: 21.7 nM
- IC50 [9, 26]: 42.2 nM
- Ki [14, 27]: 0.0332 nM
- IC50 [15]: 4360 nM
- Ki [15]: 2070 nM
- IC50 [16]: 406 nM
- Ki [16]: 251 nM
- IC50 [17]: 6.9 nM
- Ki [17]: 1.15 nM
- Ki [20, 28]: 0.0246 nM
- Ki [21]: 56.9 nM
SMILES: c1csc(-c2c[nH]c3nccc(N4CCC[C@@]5(CCCCN5)C4)c23)n1 [Example E150, 2-[4-[(6S)-1,8-diazaspiro[5.5]undecan-8-yl]-1H-pyrrolo[2,3-b]pyridin-3-yl]thiazole]

- IC50 [4, 24]: > 30000 nM
- Ki [6, 25]: 100 nM
- IC50 [9, 26]: 150 nM
- Ki [14, 27]: 0.0493 nM
- Ki [20, 28]: 0.0539 nM
- Ki [21]: 203 nM
SMILES: Cc1cnc(-c2c[nH]c3nccc(N4CCC[C@@]5(CCCCN5)C4)c23)s1 [Example E146, 2-[4-[(6S)-1,8-diazaspiro[5.5]undecan-8-yl]-1H-pyrrolo[2,3-b]pyridin-3-yl]-5-methyl-thiazole]

Further lines, the molecule ahead of its results:

SMILES: c1cc(-c2c[nH]c3nccc(N4CCC[C@@]5(CCCCN5)C4)c23)ncn1 [Example E117, (6S)-8-(3-pyrimidin-4-yl-1H-pyrrolo[2,3-b]pyridin-4-yl)-1,8-diazaspiro[5.5]undecane]
- compound in blood at experimental endpoint ([1]; DMBA/TPA FVB mice, topical 25 μg 5 times per week for 14 weeks): no detectable levels; also recorded: undetectable
- concentration at 2 h ([1]; FVB, mouse, blood, topical, 25 μg): 0.04 µM
- concentration at 14 weeks [1, 23]: > 1 µM
- concentration at 2 h [1, 23]: 26 µM
- concentration at 24 h [1, 23]: > 16 µM
- clearance in the blood ([1]; by deactivation and/or metabolism): rapid clearance
- drug levels in the skin compared with blood ([1]; topical 4×25 μg over 2 days, dorsal skin): significantly higher than in blood
- mean concentration in the skin ([1]; topical administration, DMBA/TPA experiment): greater than 1 micromolar
- level in blood 24 hours after final dosing ([1]; topical single 25 μg or 8×25 μg (4 days on, 2 off, 4 on)): undetectable
- compound accumulation on repeated dosing ([1]; topical, repeated 25 μg vs single 10 μg): less than additive
- PPB free value [2]: 72.7%
- fraction unbound ([2]; plasma): 0.727
- MRCKα pS1003 cytoplasmic histoscores in papillomas ([3]; DMBA/TPA mice, topical 25 μg): reduced histoscores
- MRCKα pS1003 cytoplasmic histoscores in the treated skin area ([3]; DMBA/TPA mice, topical 25 μg): reduced histoscores
- MRCKα pS1003 immunohistochemistry staining ([3]; DMBA/TPA treated skin, topical 25 μg): significant decreases
- epidermal MRCKα pS1003 positive staining ([3]; topical 4×25 μg over 2 days, FVB mouse skin): significant reduction; also recorded: significantly reduced
- IC50 [4, 24]: 10600 nM
- radiation driven sub confluent migration ([5]; 100 nM, G7 and E2 cells): fully oppose
- cell speed of irradiated GBM cells ([5]; increasing concentrations, E2 and G7 cells): robust dose response
- Ki [6, 25]: 5.38 nM
- cell viability at higher concentrations ([7]; higher concentrations, likely off target toxicity): loss of cell viability
- cell viability ([7]; sub-micromolar levels / anti-invasive concentrations, G7 cells, listed as BDP-9066): does not affect cell survival; also recorded: No effect
- radiation driven MYPT1 phosphorylation [8]: inhibits; also recorded: opposes
- IC50 [9, 26]: 28.3 nM
- radiation sensitivity measured by clonogenic survival [10]: no impact
- radiation driven ex vivo brain slice invasion [11]: fully oppose
- penetration of intracranial tumours ([12]; 5 mg/Kg subcutaneous, 30 mins prior to cull, U87MG and G7 tumours, listed as BDP-9066): penetrates intracranial GBM xenografts; also recorded: penetrated intracranial tumours
- presence in blood at the time of culling ([12]; 5 mg/kg subcutaneous twice daily for 10 days): micromolar concentrations
- bioavailability ([12]; PK profile, data not shown): good bioavailability
- clearance ([12]; PK profile, data not shown): rapid clearance
- exposure in the brain, contralateral hemisphere ([12]; sub-cutaneous dosing, absence of significant tumour burden): very low exposure
- survival, combined with RT vs untreated cohort ([13]; 6×2 Gy whole brain RT, p=0.0007, listed as BDP-9066): significant survival advantage; also recorded: highly significant increase in survival
- survival, combined with RT vs radiation alone ([13]; 6×2 Gy whole brain RT, p=0.0459): significantly above
- survival, compound alone ([13]; vs untreated cohort): no significant survival benefit
- Ki [14, 27]: 0.0136 nM
- IC50 [15]: 287 nM
- Ki [15]: 136 nM
- IC50 [16]: 141 nM
- Ki [16]: 54 nM
- IC50 [17]: 8.3 nM
- Ki [17]: 1.38 nM
- average papilloma volume per mouse [18]: significantly reduced
- skin papilloma appearance at study end [18]: appeared visually smaller
- total papilloma numbers per mouse [18]: not different
- total tumor volume per mouse [18]: significantly reduced
- response in morphological assay (neurites) [19]: robust dose dependent response
- Ki [20, 28]: 0.0233 nM
- Ki [21]: 18.4 nM
- IC50 ([22]; Homo sapiens, light or radiation study, irradiated G7 and E2 cells): 56 nM
- response in biomarker assay (pMLC2) ([22]; cells treated with irradiation): robust dose dependent response

SMILES: c1csc(-c2c[nH]c3nccc(N4CC[C@@]5(CCCN5)C4)c23)n1 [Example E134, 2-[4-[(5S)-1,7-diazaspiro[4.4]nonan-7-yl]-1H-pyrrolo[2,3-b]pyridin-3-yl]thiazole]
- IC50 [4]: > 30000 nM
- Ki [6]: 30 nM
- IC50 [9]: 787 nM
- Ki [14]: 0.19 nM
- Ki [20]: 0.303 nM
- Ki [21]: 111 nM

SMILES: c1cc(N2CCCC3(CCCCN3)C2)c2c(-c3ncsn3)c[nH]c2n1 (centres unmarked) [Example E236, 3-[4-[1,8-diazaspiro[5.5]undecan-8-yl]-1H-pyrrolo[2,3-b]pyridin-3-yl]-1,2,4-thiadiazole]
- IC50 [4, 24]: > 30000 nM
- Ki [6, 25]: 105 nM
- IC50 [9, 26]: 145 nM
- Ki [14, 27]: 0.0945 nM
- Ki [20, 28]: 0.0898 nM
- Ki [21]: 390 nM

SMILES: CCN1CCCCC12CCCN(c1ccnc3[nH]cc(-c4ncc(C)s4)c13)C2 (centres unmarked) [Example E210, 2-[4-(1-ethyl-1,8-diazaspiro[5.5]undecan-8-yl)-1H-pyrrolo[2,3-b]pyridin-3-yl]-5-methyl-thiazole]
- IC50 [4, 24]: > 30000 nM
- Ki [6, 25]: 152 nM
- IC50 [9, 26]: 701 nM
- Ki [14, 27]: 0.127 nM
- Ki [20, 28]: 0.0634 nM
- Ki [21]: 50200 nM
